Laboratory results from ChEMBL document CHEMBL5030517, “6-Halopyridylmethylidene Penicillin-Based Sulfones Efficiently Inactivate the Natural Resistance of Pseudomonas aeruginosa to β-Lactam Antibiotics” (J Med Chem, 2021).
pIC50, pKi: −log10 of the molar value.

Experiments:
[1] = Inhibition beta lactamase PDC-1 in Pseudomonas aeruginosa PAO1 using nitrocefin as substrate measured by 96 well microtitre plate
[2] = system: Pseudomonas aeruginosa PAO1; test: Inhibition of beta-lactamase activity in Pseudomonas aeruginosa PAO1 23/14-053 (ST-309) assessed as MIC for cefpodoxime antibacterial activity at 4 mg/L by broth microdilution method
[3] = system: Pseudomonas aeruginosa PAO1; test: Inhibition of beta-lactamase activity in Pseudomonas aeruginosa PAO1 deltadacB assessed as MIC for cefpodoxime antibacterial activity at 16 mg/L by broth microdilution method
[4] = Inhibition beta lactamase PDC-1 in Pseudomonas aeruginosa PAO1 assessed as apparent inhibition constant using nitrocefin as substrate measured by 96 well microtitre plate; settings: read-out: Ki(app)
[5] = system: Pseudomonas aeruginosa PAO1; test: Inhibition of beta-lactamase activity in Pseudomonas aeruginosa PAO1 deltaDdeltsDh2deltaDh3 assessed as MIC for cefpodoxime antibacterial activity at 16 mg/L by broth microdilution method
[6] = system: Pseudomonas aeruginosa PAO1; test: Inhibition of beta-lactamase activity in Pseudomonas aeruginosa PAO1 deltaC+pUCP-(PDC-1) assessed as MIC for cefpodoxime antibacterial activity at 16 mg/L by broth microdilution method
[7] = system: Pseudomonas aeruginosa PAO1; test: Inhibition of beta-lactamase activity in Pseudomonas aeruginosa PAO1 deltaDdeltsDh2deltaDh3 assessed as MIC for cefpodoxime antibacterial activity at 4 mg/L by broth microdilution method
[8] = system: Pseudomonas aeruginosa PAO1; test: Inhibition of beta-lactamase activity in Pseudomonas aeruginosa PAO1 assessed as MIC for cefpodoxime antibacterial activity at 4 mg/L by broth microdilution method
[9] = system: Pseudomonas aeruginosa PAO1; test: Inhibition of beta-lactamase activity in Pseudomonas aeruginosa PAO1 6/04-224 (ST-175) assessed as MIC for cefpodoxime antibacterial activity at 16 mg/L by broth microdilution method
[10] = system: Pseudomonas aeruginosa PAO1; test: Inhibition of beta-lactamase activity in Pseudomonas aeruginosa PAO1 deltadacBdeltadacC assessed as MIC for cefpodoxime antibacterial activity at 16 mg/L by broth microdilution method
[11] = system: Pseudomonas aeruginosa PAO1; test: Inhibition of beta-lactamase activity in Pseudomonas aeruginosa PAO1 PAHUAC-14 (ST-966) assessed as MIC for cefpodoxime antibacterial activity at 4 mg/L by broth microdilution method
[12] = system: Pseudomonas aeruginosa PAO1; test: Inhibition of beta-lactamase activity in Pseudomonas aeruginosa PAO1 deltaC assessed as MIC for cefpodoxime antibacterial activity at 4 mg/L by broth microdilution method
[13] = system: Pseudomonas aeruginosa PAO1; test: Inhibition of beta-lactamase activity in Pseudomonas aeruginosa PAO1 deltaC+pUCP-(PDC-1) assessed as MIC for cefpodoxime antibacterial activity at 4 mg/L by broth microdilution method
[14] = system: Pseudomonas aeruginosa PAO1; test: Inhibition of beta-lactamase activity in Pseudomonas aeruginosa PAO1 deltadacBdeltaampD assessed as MIC for cefpodoxime antibacterial activity at 16 mg/L by broth microdilution method
[15] = system: Pseudomonas aeruginosa PAO1; test: Inhibition of beta-lactamase activity in Pseudomonas aeruginosa PAO1 53/22-113 (ST-244) assessed as MIC for cefpodoxime antibacterial activity at 16 mg/L by broth microdilution method
[16] = system: Pseudomonas aeruginosa PAO1; test: Inhibition of beta-lactamase activity in Pseudomonas aeruginosa PAO1 17/14-017 (ST-235) assessed as MIC for cefpodoxime antibacterial activity at 4 mg/L by broth microdilution method
[17] = system: Pseudomonas aeruginosa PAO1; test: Inhibition beta lactamase PDC-1 in Pseudomonas aeruginosa PAO1 assessed as deacylation off-rate using nitrocefin as substrate at 30 mins measured by 96 well microtitre plate
[18] = system: Pseudomonas aeruginosa PAO1; test: Inhibition of beta-lactamase activity in Pseudomonas aeruginosa PAO1 PAHUAC-27(ST-22) assessed as MIC for cefpodoxime antibacterial activity at 16 mg/L by broth microdilution method
[19] = system: Pseudomonas aeruginosa PAO1; test: Inhibition of beta-lactamase activity in Pseudomonas aeruginosa PAO1 deltaC+pUCP-(PDC-5) assessed as MIC for cefpodoxime antibacterial activity at 16 mg/L by broth microdilution method
[20] = system: Pseudomonas aeruginosa PAO1; test: Inhibition of beta-lactamase activity in Pseudomonas aeruginosa PAO1 deltaC+pUCP-(PDC-5) assessed as MIC for cefpodoxime antibacterial activity at 4 mg/L by broth microdilution method
[21] = system: Pseudomonas aeruginosa PAO1; test: Inhibition of beta-lactamase activity in Pseudomonas aeruginosa PAO1 deltadacB assessed as MIC for cefpodoxime antibacterial activity at 4 mg/L by broth microdilution method
[22] = system: Pseudomonas aeruginosa PAO1; test: Inhibition of beta-lactamase activity in Pseudomonas aeruginosa PAO1 deltaampD assessed as MIC for cefpodoxime antibacterial activity at 16 mg/L by broth microdilution method
[23] = system: Pseudomonas aeruginosa PAO1; test: Inhibition of beta-lactamase activity in Pseudomonas aeruginosa PAO1 deltaampD assessed as MIC for cefpodoxime antibacterial activity at 4 mg/L by broth microdilution method
[24] = system: Pseudomonas aeruginosa PAO1; test: Inhibition of beta-lactamase activity in Pseudomonas aeruginosa PAO1 PAHUAC-14 (ST-966) assessed as MIC for cefpodoxime antibacterial activity at 16 mg/L by broth microdilution method
[25] = system: Pseudomonas aeruginosa PAO1; test: Inhibition of beta-lactamase activity in Pseudomonas aeruginosa PAO1 23/14-053 (ST-309) assessed as MIC for cefpodoxime antibacterial activity at 16 mg/L by broth microdilution method
[26] = system: Pseudomonas aeruginosa PAO1; test: Inhibition of beta-lactamase activity in Pseudomonas aeruginosa PAO1 6/04-224 (ST-175) assessed as MIC for cefpodoxime antibacterial activity at 4 mg/L by broth microdilution method
[27] = system: Pseudomonas aeruginosa PAO1; test: Inhibition of beta-lactamase activity in Pseudomonas aeruginosa PAO1 36/14-210 (ST-235) assessed as MIC for cefpodoxime antibacterial activity at 16 mg/L by broth microdilution method
[28] = system: Pseudomonas aeruginosa PAO1; test: Inhibition of beta-lactamase activity in Pseudomonas aeruginosa PAO1 deltadacBdeltadacC assessed as MIC for cefpodoxime antibacterial activity at 4 mg/L by broth microdilution method
[29] = system: Pseudomonas aeruginosa PAO1; test: Inhibition of beta-lactamase activity in Pseudomonas aeruginosa PAO1 17/14-017 (ST-235) assessed as MIC for cefpodoxime antibacterial activity at 16 mg/L by broth microdilution method
[30] = system: Pseudomonas aeruginosa PAO1; test: Inhibition of beta-lactamase activity in Pseudomonas aeruginosa PAO1 13/09-018 (ST-175) assessed as MIC for cefpodoxime antibacterial activity at 16 mg/L by broth microdilution method
[31] = system: Pseudomonas aeruginosa PAO1; test: Inhibition of beta-lactamase activity in Pseudomonas aeruginosa PAO1 deltadacBdeltapbpGdeltadacC assessed as MIC for cefpodoxime antibacterial activity at 4 mg/L by broth microdilution method
[32] = system: Pseudomonas aeruginosa PAO1; test: Inhibition of beta-lactamase activity in Pseudomonas aeruginosa PAO1 13/09-018 (ST-175) assessed as MIC for cefpodoxime antibacterial activity at 4 mg/L by broth microdilution method
[33] = system: Pseudomonas aeruginosa PAO1; test: Inhibition of beta-lactamase activity in Pseudomonas aeruginosa PAO1 deltadacBdeltaampD assessed as MIC for cefpodoxime antibacterial activity at 4 mg/L by broth microdilution method
[34] = system: Pseudomonas aeruginosa PAO1; test: Inhibition of beta-lactamase activity in Pseudomonas aeruginosa PAO1 deltaC assessed as MIC for cefpodoxime antibacterial activity at 16 mg/L by broth microdilution method
[35] = system: Pseudomonas aeruginosa PAO1; test: Inhibition of beta-lactamase activity in Pseudomonas aeruginosa PAO1 assessed as MIC for cefpodoxime antibacterial activity at 16 mg/L by broth microdilution method
[36] = system: Pseudomonas aeruginosa PAO1; test: Inhibition of beta-lactamase activity in Pseudomonas aeruginosa PAO1 53/22-113 (ST-244) assessed as MIC for cefpodoxime antibacterial activity at 4 mg/L by broth microdilution method
[37] = system: Pseudomonas aeruginosa PAO1; test: Inhibition of beta-lactamase activity in Pseudomonas aeruginosa PAO1 deltadacBdeltapbpGdeltadacC assessed as MIC for cefpodoxime antibacterial activity at 16 mg/L by broth microdilution method
[38] = system: Pseudomonas aeruginosa PAO1; test: Inhibition beta lactamase PDC-1 in Pseudomonas aeruginosa PAO1 assessed half life of nitrocefin substrate measured by 96 well microtitre plate assay
[39] = system: Pseudomonas aeruginosa PAO1; test: Inhibition of beta-lactamase activity in Pseudomonas aeruginosa PAO1 PAHUAC-27(ST-22) assessed as MIC for cefpodoxime antibacterial activity at 4 mg/L by broth microdilution method
[40] = system: Pseudomonas aeruginosa PAO1; test: Inhibition of beta-lactamase activity in Pseudomonas aeruginosa PAO1 36/14-210 (ST-235) assessed as MIC for cefpodoxime antibacterial activity at 4 mg/L by broth microdilution method
[41] = system: Pseudomonas aeruginosa PAO1; test: Inhibition beta lactamase PDC-1 in Pseudomonas aeruginosa PAO1 assessed as inactivation efficiency by measuring acylation rate (k2/K) using nitrocefin as substrate measured by 96 well microtitre plate

For `C[C@]1(Cn2ccnn2)[C@H](C(=O)O)N2C(=O)C[C@H]2S1(=O)=O` [TAZOBACTAM], the pIC50 [1] was 6.07.
Work on `NC(=O)[C@@H]1CC[C@@H]2CN1C(=O)N2OS(=O)(=O)O` [AVIBACTAM SODIUM] yielded a pIC50 [1] of 7.29, an MIC [2] of 1 µg/mL and an MIC [3] of 0.5 µg/mL. The pKi [4] was 6.00, the MIC [5] was 1 µg/mL and the MIC [6] was 1 µg/mL. The MIC [7] was 2 µg/mL, the MIC [8] was 1 µg/mL and the MIC [9] was 8 µg/mL. It also gave an MIC [10] of 0.5 µg/mL, an MIC [11] of 4 µg/mL and an MIC [12] of 1 µg/mL. For the same molecule, the MIC [13] was 1 µg/mL, the MIC [14] was 1 µg/mL and the MIC [15] was 4 µg/mL. The MIC [16] was 4 µg/mL, the K [17] was 2.6 10^-2/min and the MIC [18] was 1 µg/mL. It also gave an MIC [19] of 1 µg/mL, an MIC [20] of 2 µg/mL and an MIC [21] of 1 µg/mL. For the same molecule, the MIC [22] was 0.5 µg/mL, the MIC [23] was 1 µg/mL and the MIC [24] was 2 µg/mL. It also gave an MIC [25] of 1 µg/mL, an MIC [26] of 8 µg/mL and an MIC [27] of 4 µg/mL. The MIC [28] was 1 µg/mL, the MIC [29] was 4 µg/mL and the MIC [30] was 8 µg/mL. It also gave an MIC [31] of 1 µg/mL, an MIC [32] of 2 µg/mL and an MIC [33] of 4 µg/mL. The MIC [34] was 1 µg/mL, the MIC [35] was 1 µg/mL and the MIC [36] was 4 µg/mL. The MIC [37] was 0.5 µg/mL, the T1/2 [38] was 28 min and the MIC [39] was 1 µg/mL. For the same molecule, the MIC [40] was 8 µg/mL and the k2/K inactivation efficiency [41] was 1370 M⁻¹ s⁻¹.
